Data: US20220160820A1, “MODULATORS OF COMPLEMENT ACTIVITY” (Ra Pharmaceuticals, Inc., priority 2019, published 2022)

How the values were obtained:
[1] = tested on: human C5 polymorphisms (including p.R885>H/C); experiment: Binding and inhibitory activities in presence of C5 polymorphisms; conditions: presence of clinically-relevant human C5 polymorphisms (including p.R885>H/C)
[2] = tested on: Co-cultures of human myotubes and neuroblastoma cells; experiment: In vitro NMJ model: autoantibody-induced C5b-9 deposition by immunofluorescence; assay type: cell-based; conditions: 10 μM zilucoplan; anti-AChR 637 IgG1; human sera; anti-C5b-9 immunofluorescence
Description: Co-cultures of human myotubes and neuroblastoma cells were prepared and cultured with human sera as an in vitro NMJ model. […] Subsequent deposition of C5b-9 was observed by immunofluorescence using an anti-C5b-9 antibody (aE11, AbCam. Cambridge. UK).

[3] = Zilucoplan levels in a patient receiving concomitant IVIG; assay type: in vivo, human; conditions: patient receiving concomitant therapeutic doses of IVIG
Description: (§1) By inhibiting FcRN, DX-2504 inhibits Fc-mediated recycling, thereby reducing the half-life of IgG antibodies. Administration of DX-2504 serves as a model for intravenous immunoglobulin (IVIG) treatment, which reduces the half-life of IgG antibodies by overwhelming the Fc recycling mechanism with large doses of immunoglobulin.

[4] = In vivo drug-drug interaction study with anti-FcRn monoclonal antibody DX-2507; conditions: concomitant dosing of anti-FcRn monoclonal antibody DX-2507; Cynomolgus monkeys
Description: as §1

[5] = In vivo drug-drug interaction study with cyclosporine A; conditions: following cyclosporine A administration; NHPs
[6] = In-vitro permeability, basement membrane model; assay type: in vitro ADME
Description: In some embodiments, the present disclosure provides methods of inhibiting C5 activity in a tissue by contacting the tissue with a tissue-penetrating C5 inhibitor. As used herein, the term “tissue-penetrating” refers to a property characterized by tissue permeability. […] Tissue penetration may be assessed by ability to cross basement membranes. As used herein, the term “basement membrane” refers to an extracellular matrix (ECM) protein layer separating endothelial cells from underlying tissues. Tissue penetration assessments may be done in vivo or in vitro and may include the use of basement membrane models. Such models may include measuring compound diffusion across artificial basement membranes. Such models may include the use of upper and lower reservoirs separated by an artificial basement membrane. Artificial basement membranes may include any of the ECM gel membranes described in Arends, F. et al. 2016. IntechOpen, DOI: 10.5772/62519, the contents of which are herein incorporated by reference in their entirety. ECM gel membranes may be prepared to include matrix components mimicking those found in the basal lamina of neuromuscular junctions.
The ECM gel membrane was prepared to include matrix components mimicking those found in the basal lamina of neuromuscular junctions.

[7] = target: surface-bound C5b-9 or soluble membrane attack complex (sC5b-9) (Homo sapiens, UniProt P01031); experiment: Binding to C5b-9 / soluble membrane attack complex
[8] = Quantitative whole body analysis (QWBA) of radiolabeled zilucoplan; assay type: in vivo; conditions: rats, 24 hours
Description: In some embodiments, compound permeability may be determined using quantitative whole body analysis (QWBA). QWBA is a form of analysis that uses radiography to assess distribution of radiolabeled analytes. In some embodiments, radiolabeled compounds are administered to subjects and tissue distribution of the compounds is analyzed over time.
Enhanced permeability of zilucoplan was confirmed by quantitative whole body analysis (QWBA). […] Area under the concentration curve (AUC) for each organ or tissue analyzed was expressed as a percentage of plasma AUC to yield a biodistribution value, presented in Table 2 below. […] 5:297-305, are provided for comparison.

CCCCCCCCCCCCCCCC(=O)N[C@@H](CCC(=O)NCCOCCOCCOCCOCCOCCOCCOCCOCCOCCOCCOCCOCCOCCOCCOCCOCCOCCOCCOCCOCCOCCOCCOCCOCCCCC(=O)NCCCC[C@H](NC(=O)[C@@H](NC(=O)[C@@H]1CCCN1C(=O)[C@H](Cc1ccc(O)cc1)NC(=O)[C@H](CCC(=O)[O-])NC(=O)[C@H](Cc1c[nH]c2ncccc12)NC(=O)[C@H](Cc1ccc(O)cc1)NC(=O)[C@@H](NC(=O)[C@H](CC(=O)[O-])N(C)C(=O)[C@@H]1CC(=O)NCCCC[C@H](NC(C)=O)C(=O)N[C@@H](C(C)C)C(=O)N[C@@H](CCC(=O)O)C(=O)N[C@@H](CCCNC(=N)N)C(=O)N[C@@H](Cc2ccccc2)C(=O)N1)C(C)(C)C)C1CCCCC1)C(=O)[O-])C(=O)[O-].[Na+].[Na+].[Na+].[Na+] [zilucoplan]
binding and inhibitory activities [1]: not affected
C5b-9 deposition [2]: absent
changes in zilucoplan levels [3]: no changes
Zilucoplan pharmacodynamics [4]: did not change
Zilucoplan pharmacokinetics [4]: did not change
effects on zilucoplan exposure [5]: No effects
fraction introduced to upper reservoir diffused to lower reservoir ([6]; 24 hours): more than 60%
fraction introduced to upper reservoir diffused to lower reservoir ([6]; after 12 hours): Greater than 20%
binding to surface-bound C5b-9 or sC5b-9 [7]: does not bind
Zilucoplan biodistribution % (tissue AUC as percentage of plasma AUC) ([8]; Bone): 15.3%
Zilucoplan biodistribution % (tissue AUC as percentage of plasma AUC) ([8]; Brain): 0.9%
Zilucoplan biodistribution % (tissue AUC as percentage of plasma AUC) ([8]; Fat): 16.2%
Zilucoplan biodistribution % (tissue AUC as percentage of plasma AUC) ([8]; Heart): 22.9%
Zilucoplan biodistribution % (tissue AUC as percentage of plasma AUC) ([8]; Large Intestine): 21.7%
Zilucoplan biodistribution % (tissue AUC as percentage of plasma AUC) ([8]; Liver): 27.1%
Zilucoplan biodistribution % (tissue AUC as percentage of plasma AUC) ([8]; Lung): 37.5%
Zilucoplan biodistribution % (tissue AUC as percentage of plasma AUC) ([8]; Lymph nodes): 12.8%
Zilucoplan biodistribution % (tissue AUC as percentage of plasma AUC) ([8]; Muscle): 7.0%
Zilucoplan biodistribution % (tissue AUC as percentage of plasma AUC) ([8]; Pancreas): 15.8%
Zilucoplan biodistribution % (tissue AUC as percentage of plasma AUC) ([8]; Small Intestine): 10.9%
Zilucoplan biodistribution % (tissue AUC as percentage of plasma AUC) ([8]; Spleen): 15.5%
Zilucoplan biodistribution % (tissue AUC as percentage of plasma AUC) ([8]; Stomach): 8.5%
Zilucoplan biodistribution % (tissue AUC as percentage of plasma AUC) ([8]; Testes): 15.5%
Zilucoplan biodistribution % (tissue AUC as percentage of plasma AUC) ([8]; Thymus): 7.8%
